Experimental data taken from paper PMC10382604, “The mirrored cationic peptide as miRNA vehicle for efficient lung cancer therapy” (MedComm, 2023).
Ends that are not written are not given here.

Tests used:
Test in all cases: CCK-8 cytotoxicity of the peptides
Details in all cases: CCK-8 assay, peptide alone, Figure S1
[1] = test system: NCI‐H1299 (lung adenocarcinoma cells); format: cell-based, human
Protocol: (§1) Cell viability was detected by CCK8 assay (Beyotime Biotechnology, China) based on the universal protocol.[38] The ratio of cell viability was calculated as A treated/A control × 100%.

[2] = test system: A549 (lung adenocarcinoma cells); format: cell-based, human
Protocol: as §1

[3] = test system: BEAS‐2B cells (human bronchial epithelial cells); format: cell-based
Protocol: as §1

Measured: cytotoxicity

RGDGSRRRRPLGLAGRRRR [RR19]
no significant cytotoxicity: all assays above

RGDGSRRRRPLGLAGRRRRGSRGD [RD24]
no significant cytotoxicity: all assays above

RRRRPLGLAGRRRR [RR14]
no significant cytotoxicity: all assays above
